Inconclusive results and toxic doses are left out. No stated cut-off is given here; in the data, active means T/C of 150% or more; inactive means T/C below 125%.
System: L1210 leukemia ip in BDF1 mice, survival T/C
Test: NCI In Vivo Anticancer Drug Screen. Data for tumor model L1210 Leukemia (intraperitoneal) in B6D2F1 (BDF1) mice
Details: endpoint: mean survival time, higher = longer survival
In short: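 Transplantable tumor model; survival measured in treated vs vehicle control mice. Value = treated/control.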

[1] = dose: 100.0 mg/kg/injection, schedule: Q01DX001 (ip), vehicle: Klucel (hydroxypropylcellulose) (HPC)
[2] = dose: 200.0 mg/kg/injection, schedule: Q01DX001 (ip), vehicle: Klucel (hydroxypropylcellulose) (HPC)
[3] = dose: 400.0 mg/kg/injection, schedule: Q01DX001 (ip), vehicle: Klucel (hydroxypropylcellulose) (HPC)
[4] = dose: 100.0 mg/kg/injection, schedule: Q01DX009 (ip), vehicle: saline with Tween-80
[5] = dose: 200.0 mg/kg/injection, schedule: Q01DX009 (ip), vehicle: saline with Tween-80
[6] = dose: 100.0 mg/kg/injection, schedule: Q01DX009 (ip), vehicle: Klucel (hydroxypropylcellulose) (HPC)
[7] = dose: 100.0 mg/kg/injection, schedule: Q04DX002 (ip), vehicle: Klucel (hydroxypropylcellulose) (HPC)
[8] = dose: 200.0 mg/kg/injection, schedule: Q01DX009 (ip), vehicle: Klucel (hydroxypropylcellulose) (HPC)
[9] = dose: 200.0 mg/kg/injection, schedule: Q04DX002 (ip), vehicle: Klucel (hydroxypropylcellulose) (HPC)
[10] = dose: 400.0 mg/kg/injection, schedule: Q01DX009 (ip), vehicle: Klucel (hydroxypropylcellulose) (HPC)
[11] = dose: 400.0 mg/kg/injection, schedule: Q04DX002 (ip), vehicle: Klucel (hydroxypropylcellulose) (HPC)
[12] = dose: 100.0 mg/kg/injection, schedule: Q04DX003 (ip), vehicle: Klucel (hydroxypropylcellulose) (HPC)
[13] = dose: 200.0 mg/kg/injection, schedule: Q04DX003 (ip), vehicle: Klucel (hydroxypropylcellulose) (HPC)

Measured: T/C

CCCCCCCCCCCCCCC1=NCCN1
inactive: dose: 5.0 mg/kg/injection, schedule: Q01DX009 (ip), vehicle: saline 98 % of control | dose: 10.0 mg/kg/injection, schedule: Q01DX001 (ip), vehicle: saline 94 % of control | dose: 10.0 mg/kg/injection, schedule: Q01DX009 (ip), vehicle: saline 104 % of control | dose: 10.0 mg/kg/injection, schedule: Q04DX003 (ip), vehicle: saline 92 % of control | dose: 20.0 mg/kg/injection, schedule: Q01DX001 (ip), vehicle: saline 103 % of control | dose: 20.0 mg/kg/injection, schedule: Q01DX009 (ip), vehicle: saline 106 % of control | dose: 20.0 mg/kg/injection, schedule: Q04DX003 (ip), vehicle: saline 101 % of control | dose: 40.0 mg/kg/injection, schedule: Q01DX001 (ip), vehicle: saline 98 % of control | dose: 40.0 mg/kg/injection, schedule: Q04DX003 (ip), vehicle: saline 92 % of control

O=S(=O)(N=C1C=CC(=NS(=O)(=O)c2ccccc2)C=C1)c1ccccc1
inactive: dose: 100.0 mg/kg/injection, schedule: Q01DX009 (ip), vehicle: gum acacia 98 % of control | dose: 100.0 mg/kg/injection, schedule: Q04DX003 (ip), vehicle: gum acacia 98 % of control | dose: 200.0 mg/kg/injection, schedule: Q01DX009 (ip), vehicle: gum acacia 97 % of control | dose: 200.0 mg/kg/injection, schedule: Q04DX003 (ip), vehicle: gum acacia 98 % of control | dose: 400.0 mg/kg/injection, schedule: Q04DX003 (ip), vehicle: gum acacia 95 % of control

CC(C)=CCOc1ccc2c(c1)OCO2
inactive: dose: 100.0 mg/kg/injection, schedule: Q04DX002 (ip), vehicle: saline with Tween-80 91 % of control | dose: 200.0 mg/kg/injection, schedule: Q04DX002 (ip), vehicle: saline with Tween-80 103 % of control

O=C1Nc2ccccc2C(=O)Nc2ccccc21
inactive: dose: 100.0 mg/kg/injection, schedule: Q04DX003 (ip), vehicle: acetone 98 % of control | dose: 200.0 mg/kg/injection, schedule: Q04DX003 (ip), vehicle: acetone 93 % of control | dose: 400.0 mg/kg/injection, schedule: Q04DX003 (ip), vehicle: acetone 101 % of control

COc1ccc(C=Nc2ccccc2)cc1
inactive: dose: 100.0 mg/kg/injection, schedule: Q04DX003 (ip), vehicle: saline with Tween-80 103 % of control | dose: 200.0 mg/kg/injection, schedule: Q04DX003 (ip), vehicle: saline with Tween-80 97 % of control | dose: 400.0 mg/kg/injection, schedule: Q04DX003 (ip), vehicle: saline with Tween-80 97 % of control

O=C(NC(CCl)c1ccccc1)c1ccc([N+](=O)[O-])cc1 (stereo not given)
inactive: dose: 75.0 mg/kg/injection, schedule: Q04DX003 (ip), vehicle: Klucel (hydroxypropylcellulose) (HPC) 100 % of control | [1] 98 % of control | dose: 150.0 mg/kg/injection, schedule: Q04DX003 (ip), vehicle: Klucel (hydroxypropylcellulose) (HPC) 103 % of control | [2] 104 % of control | dose: 300.0 mg/kg/injection, schedule: Q04DX003 (ip), vehicle: Klucel (hydroxypropylcellulose) (HPC) 97 % of control | [3] 104 % of control

CN(C)CC(=O)O
inactive: dose: 100.0 mg/kg/injection, schedule: Q01DX009 (ip), vehicle: saline 94 % of control | dose: 200.0 mg/kg/injection, schedule: Q01DX009 (ip), vehicle: saline 94 % of control | dose: 400.0 mg/kg/injection, schedule: Q01DX009 (ip), vehicle: saline 94 % of control

O=c1[nH]c(Cc2ccccc2)c(Br)c(=O)[nH]1
inactive: dose: 50.0 mg/kg/injection, schedule: Q01DX001 (ip), vehicle: saline 102 % of control | dose: 100.0 mg/kg/injection, schedule: Q01DX001 (ip), vehicle: saline 100 % of control | [4] 104 % of control | dose: 100.0 mg/kg/injection, schedule: Q## X009 (ip), vehicle: saline with Tween-80 104 % of control | dose: 200.0 mg/kg/injection, schedule: Q01DX001 (ip), vehicle: saline 100 % of control | [5] 92 % of control | dose: 200.0 mg/kg/injection, schedule: Q## X009 (ip), vehicle: saline with Tween-80 92 % of control | dose: 400.0 mg/kg/injection, schedule: Q01DX001 (ip), vehicle: saline 94 % of control

Cc1c(C#N)oc2cccc(O)c12
inactive: [6] 100 % of control | [7] 109 % of control | [8] 100 % of control | [9] 109 % of control | [10] 96 % of control | [11] 102 % of control

O=C(O)c1cccc2c1C(=O)c1cc([N+](=O)[O-])ccc1-2
inactive: dose: 75.0 mg/kg/injection, schedule: Q01DX001 (ip), vehicle: carboxymethylcellulose (CMC) 101 % of control | dose: 150.0 mg/kg/injection, schedule: Q01DX001 (ip), vehicle: carboxymethylcellulose (CMC) 105 % of control

O=C(Nc1ccc(Cl)c(Cl)c1)OCC1CC2C=CC1C2 (stereo not given)
inactive: [6] 100 % of control | [8] 97 % of control | [10] 106 % of control

O=C(O)c1ccc(Cl)cc1Nc1ccc(F)cc1
inactive: [1] 100 % of control | [6] 96 % of control | [2] 100 % of control | [3] 100 % of control

COc1cc2c3c(c1)-c1nc4ccccc4cc1CN3CCC2
inactive: dose: 100.0 mg/kg/injection, schedule: Q01DX009 (ip), vehicle: other 102 % of control | dose: 100.0 mg/kg/injection, schedule: Q04DX003 (ip), vehicle: other 97 % of control | dose: 200.0 mg/kg/injection, schedule: Q01DX009 (ip), vehicle: other 102 % of control | dose: 200.0 mg/kg/injection, schedule: Q04DX003 (ip), vehicle: other 100 % of control | dose: 400.0 mg/kg/injection, schedule: Q01DX009 (ip), vehicle: other 114 % of control | dose: 400.0 mg/kg/injection, schedule: Q04DX003 (ip), vehicle: other 97 % of control

CC(=O)OC1CCC2(C)C(=CCC3C2CCC2(C)C(/C(C)=N/O)=CCC32)C1 (stereo not given)
inactive: [4] 96 % of control | [5] 100 % of control | dose: 400.0 mg/kg/injection, schedule: Q01DX009 (ip), vehicle: saline with Tween-80 91 % of control

CC(=O)OCCCCc1ccccc1
inactive: dose: 50.0 mg/kg/injection, schedule: Q01DX009 (ip), vehicle: saline with Tween-80 97 % of control | [4] 97 % of control | [5] 87 % of control

CCOC(=O)c1cnc(SC)nc1Nc1c(Br)cc(Br)cc1Br
inactive: dose: 12.5 mg/kg/injection, schedule: Q01DX009 (ip), vehicle: Klucel (hydroxypropylcellulose) (HPC) 102 % of control | dose: 12.5 mg/kg/injection, schedule: Q04DX003 (ip), vehicle: Klucel (hydroxypropylcellulose) (HPC) 97 % of control | dose: 25.0 mg/kg/injection, schedule: Q01DX009 (ip), vehicle: Klucel (hydroxypropylcellulose) (HPC) 102 % of control | dose: 25.0 mg/kg/injection, schedule: Q04DX003 (ip), vehicle: Klucel (hydroxypropylcellulose) (HPC) 94 % of control | dose: 50.0 mg/kg/injection, schedule: Q01DX009 (ip), vehicle: Klucel (hydroxypropylcellulose) (HPC) 105 % of control | dose: 50.0 mg/kg/injection, schedule: Q04DX003 (ip), vehicle: Klucel (hydroxypropylcellulose) (HPC) 103 % of control

CC(=O)C1CCC2C3CC=C4CC(O)CCC4(C)C3CCC12C (stereo not given)
inactive: [7] 91 % of control | [12] 89 % of control | [9] 100 % of control | [13] 92 % of control | [11] 91 % of control

CCCCC(CC)CCC(O)CCC(CC)CC (stereo not given)
inactive: [12] 102 % of control | [13] 98 % of control | dose: 400.0 mg/kg/injection, schedule: Q04DX003 (ip), vehicle: Klucel (hydroxypropylcellulose) (HPC) 102 % of control

— PubChem BioAssay AID248 (DTP/NCI, 2004)
